Read-outs that look alike come from different tables or passages of the source.
Test: Tissue bio-distribution and tissue pharmacokinetics of DMA
Assay type: in vivo, mouse
Settings: for concentration at 2 h / concentration at 4 h / concentration at 6 h / concentration at 16 h / concentration at 24 h / concentration at 1 h: Balb/c, mouse
Description: Tissue samples were collected from the same mice from which blood samples were collected in both doses of DMA. Lung, liver, kidney, intestine, heart, spleen, brain were dissected and rinsed with phosphate buffer saline (PBS) and dried on blotting paper. 100 mg of tissue sample was homogenized for 20 s in chilled acetronitrile and water and further 700 μl chilled acetronitrile was added. The sample was centrifuged at 14000 rpm for 10 min and clear supernatant was collected for analysis on HPLC-MS/MS system.
A standard DMA calibration from 1-1000 ng/ml with internal standard (20 ng/ml) was quantified. Sample analysis was performed on positive ionization mode LC-MS/MS with multiple reactions monitoring (MRM, m/z Q1/Q3) of DMA (m/z 235.1/412.0, retention time (RT) 5.3 min) and internal standard (m/z 227.1/396.0, RT 6.5 min) (Agilent 6410 series). A gradient method was employed to analyze the plasma samples using mobile phase A (0.1% formic acid in water) and mobile phase B (methanol). The B % was set as 30 (0 min), 90 (10-14 min), 30 (14-24 min) with flow rate of 0.3 ml/min. An injection volume of 10 μl was used for analysis.
Peak tissue concentration (Cmax) of DMA and time to reach the Cmax (tmax) were read directly from the raw data by visual examination of mean tissue concentration-time profile. The tissue concentration-time data following oral dose were subjected to one-, two- and three-compartmental models using WinNonlin program (version 6.3; Certara Inc, Missouri, USA) to calculate the pharmacokinetic parameters. The pharmacokinetic models were compared according to maximal correlation between observed and predicted concentration, minimal sum of squared residuals, Akaike Information Criterion (AIC) and Schwarz Bayesian Criterion (SBC). However, the tissue concentration-time data following intravenous administration were subjected to non-compartmental approach.

[1] = intestine, iv, i.v. 50 mg/kg, read-out: Tissue DMA concentration, Intestine
[2] = intestine, Oral 100 mg/kg, read-out: Tissue DMA concentration, Intestine
[3] = kidney, iv, i.v. 50 mg/kg, read-out: Tissue DMA concentration, Kidney

## COc1ccc(-c2nc3cc(-c4nc5cc(N6CCN(C)CC6)ccc5[nH]4)ccc3[nH]2)cc1OC [DMA, 5-(4-methylpiperazin-1-yl)-2-[2′-(3,4-dimethoxyphenyl)-5′-benzimidazolyl]benzimidazole]
50 mg/kg i.v.
  Concentration achieved in intestine: 1260 µg/g
50 mg/kg i.v. vs 100 mg/kg oral
  Small intestine concentration, i.v. as compared to oral route: 11.88 fold
50 mg/kg intravenous
  AUC, Kidney: 945577.2 ng·h/g
  AUC, Liver: 889040 ng·h/g
  AUC, Lung: 2674622.2 ng·h/g
  AUC, Small Intestine: 220072.6 ng·h/g
  AUC, Spleen: 145191 ng·h/g
  C1 hr, Kidney: 14900 ng/g
  C1 hr, Liver: 41600 ng/g
  C1 hr, Lung: 109000 ng/g
  C1 hr, Small Intestine: 1260000 ng/g
  Clearance, Kidney: 17.9 g/h/kg
  Clearance, Liver: 39.5 g/h/kg
  Clearance, Small Intestine: 15.0 g/h/kg
  Clearance, Spleen: 89.3 g/h/kg
  Vd, Kidney: 1944.8 g/kg
  Vd, Liver: 668.7 g/kg
  Vd, Lung: 552.1 g/kg
  Vd, Small Intestine: 40360.3 g/kg
  Vd, Spleen: 3857.9 g/kg
  Vss, Kidney: 1623.5 g/kg
  Vss, Liver: 496.11 g/kg
  Vss, Lung: 10.72 g/kg
  Vss, Small Intestine: 4.9 g/kg
  Vss, Spleen: 4114.6 g/kg
100 mg/kg oral dose
  AUC, Kidney: 10874.29 ng·h/g
  AUC, Liver: 20717.3 ng·h/g
  AUC, Small Intestine: 361353.4 ng·h/g
  AUC, Spleen: 8353.819 ng·h/g
  Cl/F, Kidney: 9190 g/h/kg
  Cl/F, Liver: 4000 g/h/kg
  Cl/F, Small Intestine: 277 g/h/kg
  Cl/F, Spleen: 11000 g/h/kg
  Cmax, Kidney: 1530 ng/g
  Cmax, Liver: 2230 ng/g
100 mg/kg oral, at 2 h
  Maximum concentration in small intestine: 106 µg/g
  Maximum concentration in spleen: 1.31 µg/g
100 mg/kg oral, at 4 h
  Maximum concentration in kidney: 1.53 µg/g
  Maximum concentration in liver: 2.23 µg/g
[1]
  concentration at 2 h: 70400 ng/g
  concentration at 4 h: 59200 ng/g
  concentration at 6 h: 29700 ng/g
  concentration at 16 h: 2530 ng/g
  concentration at 24 h: 1710 ng/g
intestine, Oral 100 mg/kg, 1 h, read-out: Tissue DMA concentration, Intestine
  concentration at 1 h: 675 ng/g
[2]
  concentration at 2 h: 106000 ng/g
  concentration at 4 h: 30200 ng/g
  concentration at 6 h: 28700 ng/g
  concentration at 16 h: 612 ng/g
  concentration at 24 h: 410 ng/g
kidney, intravenous, 50 mg/kg i.v., read-out: Concentration achieved in kidney
  concentration at 1 h: 14900 ng/g
kidney, iv, i.v. 50 mg/kg, 1 h, read-out: Tissue DMA concentration, Kidney
  concentration at 1 h: 14900 ng/g
[3]
  concentration at 2 h: 8370 ng/g
  concentration at 4 h: 9080 ng/g
  concentration at 6 h: 707 ng/g
  concentration at 16 h: 263 ng/g
